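Interpolation was linear, between the two tested concentrations surrounding the appropriate level; five concentrations were tested over 48 hours in 96-well plates. GI50: concentration for 50% inhibition of growth. TGI denotes the concentration required for complete inhibition of growth.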

Our source for the GI50 and TGI values is PubChem BioAssay (NCI).

Test systems include HCT-15 colon; NCI-H23 lung; HT29 colon; TK-10 renal; A549 NSCLC; SK-MEL-2 melanoma; SR leukemia; IGROV1 ovarian; SK-MEL-28 melanoma; M14 melanoma.
Assay in all cases: growth of human tumour cells (NCI), 48 h

Consider `Cn1cccc1-c1cc(-c2cccs2)nc(N)c1C#N`, for which the GI50 in the experiment on HCT-15 colon, in the experiment with NCI-H23 lung, with HT29 colon, with TK-10 renal, with A549 NSCLC and in the experiment on SK-MEL-2 melanoma was over 100 µM throughout. For the same compound, the GI50 was 5.39 µM in the experiment on SR leukemia, over 100 µM in the experiment with IGROV1 ovarian and over 100 µM in the experiment with SK-MEL-28 melanoma. The TGI in the experiment on HCT-15 colon, with NCI-H23 lung, with HT29 colon, in the experiment on TK-10 renal, in the experiment on A549 NSCLC and in the experiment with SK-MEL-2 melanoma was over 100 µM throughout. The TGI was 68.2 µM in the experiment with SR leukemia, over 100 µM in the experiment with IGROV1 ovarian and over 100 µM in the experiment on SK-MEL-28 melanoma.
Turning to `O=C(N/C(=C\c1ccc2c(c1)OCO2)c1nc2ccccc2[nH]1)c1ccccc1`, the TGI was over 90.9 µM in the experiment on M14 melanoma; over 100 µM in the experiment with HCT-15 colon; 53.4 µM in the experiment with NCI-H23 lung; 92.3 µM in the experiment on TK-10 renal; over 100 µM in the experiment with A549 NSCLC; 55.9 µM in the experiment on SK-MEL-2 melanoma. The figures for the TGI in the experiment on SR leukemia, in the experiment on IGROV1 ovarian and with SK-MEL-28 melanoma were 72.3 µM, 77.3 µM and 52.1 µM, respectively.
As for `CSc1ccc(C2OC(=O)c3ccccc32)c2ccccc12` (stereo unspecified), the TGI in the experiment with M14 melanoma, with HCT-15 colon, in the experiment with HT29 colon, with A549 NSCLC, in the experiment on SK-MEL-2 melanoma and in the experiment with SR leukemia was over 100 µM in each case. Further, the TGI with IGROV1 ovarian and with SK-MEL-28 melanoma was over 100 µM throughout.
Turning to `C#CCOCn1cnc2c(Cl)ncnc21`, the TGI in the experiment with M14 melanoma, in the experiment with NCI-H23 lung, with HT29 colon, with TK-10 renal, in the experiment on A549 NSCLC and with SK-MEL-2 melanoma was over 100 µM in each case. Further, the TGI in the experiment on SR leukemia, in the experiment on IGROV1 ovarian and in the experiment on SK-MEL-28 melanoma was over 100 µM throughout.
As to `COc1ccc(-c2nc3sc4c(c3c(=O)[nH]2)CCCCCC4)cc1`, the GI50 with M14 melanoma was 1.48 µM; in the experiment on HCT-15 colon, 0.655 µM; in the experiment on NCI-H23 lung, over 33.2 µM; in the experiment on TK-10 renal, over 33.2 µM; in the experiment on A549 NSCLC it was 2.94 µM; in the experiment with SK-MEL-2 melanoma, 2.83 µM. For the same compound, the values for the GI50 with SR leukemia, with IGROV1 ovarian and in the experiment with SK-MEL-28 melanoma were 0.717 µM, 6.38 µM and 6.67 µM, respectively. Further, the TGI is over 33.2 µM in the experiment with M14 melanoma; over 33.2 µM with HCT-15 colon; over 33.2 µM in the experiment on NCI-H23 lung; over 33.2 µM in the experiment on TK-10 renal; over 33.2 µM with A549 NSCLC; 23.5 µM with SK-MEL-2 melanoma. The TGI in the experiment on SR leukemia, in the experiment with IGROV1 ovarian and with SK-MEL-28 melanoma was over 33.2 µM each time.
As for `Cc1ccccc1[P+](Cc1ccccc1)(c1ccccc1)c1ccccc1`, the GI50 was 2.51 µM with M14 melanoma; 23.5 µM with HCT-15 colon; 1.79 µM in the experiment with HT29 colon; 3.07 µM in the experiment on A549 NSCLC; 2.67 µM in the experiment on SK-MEL-2 melanoma; 1.6 µM in the experiment with SR leukemia. Moreover, the figures for the GI50 in the experiment on IGROV1 ovarian and in the experiment on SK-MEL-28 melanoma were 1.8 µM and 2.91 µM, respectively. Also, the TGI with M14 melanoma was 12.6 µM; in the experiment with HCT-15 colon it was over 100 µM; in the experiment with HT29 colon, 29 µM; in the experiment with A549 NSCLC, over 100 µM; in the experiment on SK-MEL-2 melanoma, 6.65 µM; with SR leukemia, 15.7 µM. Also, the TGI was determined as 32.1 µM with IGROV1 ovarian and 37.9 µM in the experiment on SK-MEL-28 melanoma.
`CC(=O)OCC1OC(OC2C(CSC3OC(COC(C)=O)C(OC(C)=O)C(OC(C)=O)C3OC(C)=O)OC(OC(C)=O)C(OC(C)=O)C2OC(C)=O)C(OC(C)=O)C(OC(C)=O)C1OC(C)=O` (stereo unspecified): the TGI with M14 melanoma, in the experiment with HCT-15 colon, in the experiment with NCI-H23 lung, in the experiment on HT29 colon, with TK-10 renal and in the experiment with A549 NSCLC was over 100 µM throughout. Further, the TGI in the experiment with SR leukemia, in the experiment on IGROV1 ovarian and in the experiment on SK-MEL-28 melanoma was over 100 µM throughout.
`O=C1/C(=C\c2c[nH]c3ccccc23)c2ccccc2N1c1c(Cl)cccc1Cl`: the GI50 with HCT-15 colon was 1.16 µM; in the experiment on NCI-H23 lung it was 1.66 µM; in the experiment on HT29 colon, 1.85 µM; with TK-10 renal, 2.17 µM; with A549 NSCLC, 2.62 µM; in the experiment with SK-MEL-2 melanoma, 1.94 µM. Moreover, the GI50 is 2.33 µM in the experiment on SR leukemia, 1.19 µM in the experiment with IGROV1 ovarian and 2.14 µM in the experiment with SK-MEL-28 melanoma. For the same compound, the TGI in the experiment with HCT-15 colon stood at 2.92 µM; in the experiment with NCI-H23 lung, 3.38 µM; in the experiment with HT29 colon, 3.4 µM; in the experiment with TK-10 renal, 5 µM; in the experiment on A549 NSCLC it was 7.79 µM; with SK-MEL-2 melanoma it was 3.65 µM. The TGI with SR leukemia is 5.16 µM; in the experiment on IGROV1 ovarian, 3.18 µM; in the experiment with SK-MEL-28 melanoma, 3.8 µM.
As for `O=C(O)/C=C\C(=O)N1C/C(=C\c2ccccc2Cl)C(=O)/C(=C/c2ccccc2Cl)C1`, the GI50 in the experiment on M14 melanoma was 3.1 µM; in the experiment on HCT-15 colon, 2.3 µM; with NCI-H23 lung it was 2.5 µM; in the experiment with TK-10 renal it was 4.47 µM; in the experiment with A549 NSCLC, 3.01 µM; in the experiment on SK-MEL-2 melanoma, 3.08 µM. The results for the GI50 with SR leukemia, with IGROV1 ovarian and in the experiment with SK-MEL-28 melanoma were 0.632 µM, 3.66 µM and 2.88 µM, respectively. In addition, the TGI with M14 melanoma was 10.6 µM; with HCT-15 colon it was 6.44 µM; with NCI-H23 lung, 6.41 µM; with TK-10 renal, 12.3 µM; in the experiment with A549 NSCLC it was 13 µM; in the experiment on SK-MEL-2 melanoma, 8.33 µM. The TGI amounted to 13 µM in the experiment on SR leukemia, 11.2 µM with IGROV1 ovarian and 9.09 µM in the experiment with SK-MEL-28 melanoma.
On to `C[C@@H]1C[C@H]2CC[C@H](O2)[C@H](C)C(=O)O[C@@H](C)C[C@@H]2CC[C@@H](O2)[C@@H](C)C(=O)O[C@H](C)C[C@H]2CC[C@H](O2)[C@H](C)C(=O)O[C@@H](C)C[C@@H]2CC[C@@H](O2)[C@@H](C)C(=O)O1`, for which the TGI is over 85 µM in the experiment on M14 melanoma; over 100 µM in the experiment on HCT-15 colon; 15.7 µM in the experiment with HT29 colon; over 48.5 µM in the experiment with TK-10 renal; over 100 µM in the experiment on A549 NSCLC; 3.34 µM in the experiment with SK-MEL-2 melanoma. Also, the results for the TGI with SR leukemia, with IGROV1 ovarian and in the experiment with SK-MEL-28 melanoma were over 42.8 µM, 32.4 µM and over 100 µM, respectively.
As for `Nc1ccn(CCNCCn2cnc3nc(N)[nH]c(=O)c32)c(=O)n1`, the TGI in the experiment with HCT-15 colon, in the experiment with NCI-H23 lung, in the experiment with HT29 colon, with TK-10 renal, with A549 NSCLC and with SK-MEL-2 melanoma was over 100 µM in each case. In addition, the TGI in the experiment with SR leukemia, in the experiment on IGROV1 ovarian and in the experiment on SK-MEL-28 melanoma was over 100 µM in each case.
